Numbers after ± are expanded uncertainties.

The data set is described as follows: Boiling temperature at pressure P. The note with it: 101.3 kPa; Liquid; Ebulliometric method (Recirculating still).
As to `CC(=O)OCC(C)C` [2-methylpropyl ethanoate], the “Boiling temperature at pressure P” value was determined as 116.60 ± 0.2 °C.

As for `C=CCO` [2-propenol], the “Boiling temperature at pressure P” value was determined as 96.8 ± 0.44 °C.

Regarding `CCCCOC(C)=O` [butyl ethanoate], the “Boiling temperature at pressure P” value turned out to be 126.00 ± 0.2 °C.

As for `CCCCOC(=O)CC` [butyl propanoate], the “Boiling temperature at pressure P” value came to 145.10 ± 0.2 °C.

The record behind these values is the NIST ThermoML archive (doi:10.1021/acs.jced.7b01024).
